Test results from US12496294B2, “Methods for improving exercise performance and endurance thereof” (NANJING NUTRABUILDING BIO-TECH CO., LTD., priority 2020, dated 2025).

How the values were obtained:
[1] = tested on: AMPK; assay: AMPK level in red blood cells after treadmill exhaustion test; assay type: in vivo, mice; conditions: group supplemented with high dose of DHB (26 mg/kg daily); FIG. 10
Description: Prior to the experiment, all mice were acclimatized on a treadmill by running at 15% incline and at 10 m/min for two days. After the 2-day acclimatization, 40 mice were randomly divided into four groups as followings (10 for each group): Control group (normal diet supplemented with distilled water), Dihydroberberine (high) group (normal diet supplemented with dihydroberberine 26 mg/kg daily), Dihydroberberine (medium) group: (normal diet supplemented with dihydroberberine 19.5 mg/kg daily), Dihydroberberine (low) group (normal diet supplemented with dihydroberberine 13 mg/kg daily). Each group was fed on a normal diet, other than that, three experimental groups were supplemented with dihydroberberine daily for two consecutive months, while the control group was only supplemented with distilled water at the same time. Exercise endurance of the mice was evaluated by treadmill running. […] At the end point, the running distance, highest running speed, total running time of the mice were recorded^[7].
After the treadmill exhaustion test, blood samples were collected from the mice into heparin tubes. […] The levels of superoxide dismutase (SOD), catalase (CAT), and malondialdehyde (MDA) in the plasma were determined using commercially available kits. […]

[2] = tested on: mice; assay: SOD, CAT and MDA levels in plasma after treadmill exhaustion test (commercial kits); assay type: in vivo; conditions: for SOD level in plasma: FIG. 4; for CAT level in plasma: FIG. 5; for MDA level in plasma: FIG. 6
Description: (§1) Prior to the experiment, all mice were acclimatized on a treadmill by running at 15% incline and at 10 m/min for two days. After the 2-day acclimatization, 40 mice were randomly divided into four groups as followings (10 for each group): Control group (normal diet supplemented with distilled water), Dihydroberberine (high) group (normal diet supplemented with dihydroberberine 26 mg/kg daily), Dihydroberberine (medium) group: (normal diet supplemented with dihydroberberine 19.5 mg/kg daily), Dihydroberberine (low) group (normal diet supplemented with dihydroberberine 13 mg/kg daily). Each group was fed on a normal diet, other than that, three experimental groups were supplemented with dihydroberberine daily for two consecutive months, while the control group was only supplemented with distilled water at the same time. Exercise endurance of the mice was evaluated by treadmill running. At the beginning of the formal experiment, mice were placed on treadmill, running at 10 m/min for 20 minutes, and then the running speed was increased by 2 m/min every 2nd minutes. End point occurs if the mouse touched the shock grid of the treadmill three times or on the treadmill for 5 consecutive seconds without attempting to reengage the treadmill. At the end point, the running distance, highest running speed, total running time of the mice were recorded^[7].
(§2) After the treadmill exhaustion test, blood samples were collected from the mice into heparin tubes. By centrifugation at 4500 rpm for 15 minutes, plasma was separated from the top layer of the whole blood and red blood cells were also separated from the lower layer of the blood. The levels of superoxide dismutase (SOD), catalase (CAT), and malondialdehyde (MDA) in the plasma were determined using commercially available kits.

[3] = tested on: red blood cells; assay: ROS, 2,3-DPG and T-AOC in red blood cells after treadmill exhaustion test (commercial kits); assay type: in vivo, mice; conditions: for T-AOC level in the red blood cell: FIG. 9
Description: as §1, §2
The reactive oxygen species (ROS), 2,3-diphosphoglycerate (2,3-DPG), and total antioxidant capacity (T-AOC) in red blood cells were also determined using commercially available kits.

[4] = tested on: mice; assay: Treadmill running exercise endurance test in mice after DHB supplementation; assay type: in vivo; conditions: DHB 13, 19.5 or 26 mg/kg daily for two consecutive months, vs control group
Description: as §1
FIGS. 1-3 show the exercise performance and endurance of mice after supplemented with DHB for two consecutive months.

[5] = groups with administration of DHB (13, 19.5, 26 mg/kg daily, two months)
[6] = high-dose group (26 mg/kg daily), p<0.001

Question: How did the “AMPK level in red blood cells” value [1] turn out when `COc1ccc2c(c1OC)CN1CCc3cc4c(cc3C1=C2)OCO4` [DHB, dihydroberberine] was run?
Answer: decreased slightly

Question: And the “SOD level in plasma” value ([2]; groups supplemented with DHB (13, 19.5, 26 mg/kg daily, two months) vs control)?
Answer: higher than the control group

Question: What about the “CAT level in plasma” value [2, 5] of the same compound?
Answer: increased

Question: What about the “MDA level in plasma” value [2, 5] of the same compound?
Answer: increased

Question: What about the “CAT level in plasma” value ([2]; high dose group (26 mg/kg daily), p<0.05) of the same compound?
Answer: increased significantly

Question: What about the “SOD level in plasma” value ([2]; high-dose DHB group (26 mg/kg daily), p<0.01) of the same compound?
Answer: increased significantly

Question: What about the “MDA level in plasma” value [2, 6] of the same compound?
Answer: increased significantly

Question: What about the “CAT level in plasma” value ([2]; middle dose group (19.5 mg/kg daily), p<0.05) of the same compound?
Answer: increased significantly

Question: And the “ROS level in the red blood cell” value ([3]; groups supplemented with DHB (13, 19.5, 26 mg/kg daily, two months), FIG. 7)?
Answer: increased

Question: What about the “2,3-DPG level in the red blood cell” value ([3]; groups supplemented with DHB (13, 19.5, 26 mg/kg daily, two months), FIG. 8) of the same compound?
Answer: increased

Question: What about the “T-AOC level in the red blood cell” value ([3]; groups supplemented with DHB (13, 19.5, 26 mg/kg daily, two months)) of the same compound?
Answer: increased

Question: And the “T-AOC level in the red blood cell” value [3, 6]?
Answer: increased significantly

Question: And the running distance ([4]; FIG. 1)?
Answer: enhanced endurance and better performance

Question: What about the highest running speed ([4]; FIG. 2) of the same compound?
Answer: enhanced endurance and better performance

Question: What about the running time ([4]; FIG. 3) of the same compound?
Answer: enhanced endurance and better performance
